Assay: Evaluation of polyglyceryl ester surfactants for structuring a liposome
Type: physicochemical
Settings: class given by column head
Protocol: A series of polyglyceryl ester surfactants were evaluated to identify those capable of structuring a liposome. These reveal that liposome formation requires from 8 to 12 units of glycerol and a di-ester of C14-C18 fatty acid to establish a liposomal structure.

structure formed by the surfactant (O/W emulsion, liposome or W/O emulsion) | Substance
forms liposomes | Polyglyceryl-10 Dioleate
forms O/W emulsions | Polyglyceryl-10 Mono/Dioleate

Reference: patent publication US10702475B2, “Liposome containing compositions and their use in personal care and food products” (priority 2017, dated 2020)
